Peptide text beside a SMILES is read from it. * marks the point of attachment. Cbz = O=C(OCc1ccccc1)*; Acryloyl = C=CC(=O)*
Target: T1, Meerschweinchenlebertransglutaminase (Cavia cutleri, UniProt P08587)
T1 sequence (P08587 1-690): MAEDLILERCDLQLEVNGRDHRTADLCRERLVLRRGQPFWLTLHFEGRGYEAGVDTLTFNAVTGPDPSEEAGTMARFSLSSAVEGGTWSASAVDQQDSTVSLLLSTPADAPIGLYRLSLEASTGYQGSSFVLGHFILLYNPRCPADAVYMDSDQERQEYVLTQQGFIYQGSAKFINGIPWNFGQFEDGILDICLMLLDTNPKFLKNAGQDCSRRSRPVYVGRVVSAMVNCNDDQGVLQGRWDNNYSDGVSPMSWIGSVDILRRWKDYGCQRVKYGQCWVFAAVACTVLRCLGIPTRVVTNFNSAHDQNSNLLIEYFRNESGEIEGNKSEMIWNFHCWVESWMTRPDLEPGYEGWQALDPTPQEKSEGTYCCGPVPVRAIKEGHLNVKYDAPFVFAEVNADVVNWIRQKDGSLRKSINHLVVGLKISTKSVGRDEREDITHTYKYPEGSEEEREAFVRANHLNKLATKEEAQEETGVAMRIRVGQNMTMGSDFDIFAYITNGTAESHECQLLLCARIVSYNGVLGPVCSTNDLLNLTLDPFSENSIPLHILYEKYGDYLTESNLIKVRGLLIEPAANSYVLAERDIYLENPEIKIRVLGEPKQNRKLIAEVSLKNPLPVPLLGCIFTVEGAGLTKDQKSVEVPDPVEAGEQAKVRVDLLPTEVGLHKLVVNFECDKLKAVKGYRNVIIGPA
Experiment: Transglutaminase-catalysed labelling of recombinant hLeptin with Z-Gln-Gly-CAD-DNS, reaction stopped by inhibitor, RP-HPLC (Beispiel 7)
Format: biochemical, Meerschweinchen
Details: inhibitor 0,5 mM
Procedure: Alle nachfolgend beschriebenen Experimente wurden nach dem gleichen Standardprotokoll durchgeführt. Dabei werden das jeweilige Zielprotein und das farbstofftragende amin- oder glutaminhaltige Substrat in einem geeigneten Puffer vorgelegt und für 5 Min. auf 37°C temperiert. Anschließend wird durch Zugabe von Transglutaminase die Reaktion gestartet. Nach variierenden Inkubationszeiten, durch die jeweils verschiedene Markierungsgrade erreicht werden, wird durch Zugabe eines Inhibitors die Transglutaminase vollständig und irreversibel inaktiviert (Reaktionsabbruch 1). In Kontrollexperimenten wird die Markierungsreaktion durch Abtrennung des ungebundenen, farbstofftragenden Substrates unterbrochen (Reaktionsabbruch 2). Die Abtrennung des ungebundenen Farbstoffes erfolgt unter Normaldruck über eine PD-10-Säule (Amersham Biosciences). Dieses allgemein einsetzbare Verfahren zur schnellen Abtrennung kleiner Moleküle von Makromolekülen wie Proteinen basiert auf dem Prinzip der Gelpermeationschromatographie und kann als das vorteilhafteste Verfahren zur Reaktionskontrolle nach dem Stand der Technik angesehen werden. Andere Verfahren, mit denen die weitere katalytische Markierungsreaktion abgebrochen werden könnte, sind weniger geeignet oder nicht allgemein einsetzbar (z. B. thermische, unspezifische chemische oder affinitätschromatographische Methoden). Die Gelpermeationschromatographie wurde jeweils so schnell wie technisch machbar durchgeführt. Dazu wird auf die vorkonditionierte PD-10-Säule 2,5 ml des Reaktionsvolumens aufgetragen und die Lösung vollständig in das Trennmaterial eingebracht. Anschließend wird das Protein mit 3,5 ml Puffer eluiert. Die niedermolekularen Substanzen verbleiben auf der Säule. Der Gesamtprozess benötigt eine Zeitspanne von mindestens 3 Minuten. Während dieser Zeit kann Transglutaminase weiter auf das Zielprotein einwirken. […]

C=CC(=O)NCCCC[C@H](NC(=O)OCc1ccccc1)C(=O)NCC(=O)O [Z-Lys(Acryloylamid)-Gly-OH, N^α-Benzyloxycarbonyl-L-lysinyl(ε-acryloyl)glycin] (Cbz-Lys(Acryloyl)-Gly-OH)
Inaktivierung der Meerschweinchenlebertransglutaminase (added after 5 Min., GpTGase 0,25 U/ml, pH 8): vollständig | weitere Labeling- und Quervernetzungsreaktionen (stopped reaction mixture kept at RT for 30 and 60 Min.): keine weitere Labeling- und Quervernetzungsreaktionen | weitere enzymatische Reaktionen nach Lagerung (stored 10 days at -20°C, then one hour at RT): keine weiteren enzymatischen Reaktionen mehr
